tested on: Eotaxin-3 (CCL26) release in human whole blood stimulated with IL-4; assay: Human whole blood eotaxin-3 assay (IL-4 stimulated, Eotaxin-3 release); format: cell-based; settings: Homo sapiens, 48 h
Experimental: This was a human whole blood assay using recombinant human Interleukin 4 to stimulate the blood and measuring the ability of the test compounds to inhibit eotaxin-3 release. The biological activities of the test compounds have been tested in human whole blood stimulated with IL-4 measuring Eotaxin-3 release. The test compounds were added to 384 well clear flat-bottom plate in a 4-fold serial dilution in triplicates using a liquid handler. Human whole blood stabilized in lithium-heparin tubes was added in a volume of 65 μL per well, resulting in a final DMSO concentration of 0.5%. The plate is incubated for 2 h at 37° C. under 5% CO2/95% air. Subsequently, 5 μL of recombinant human IL-4 (R&D Systems, cat #204-ILB) was added to the wells to a final concentration of 400 pM. The plate was incubated for 48 h at 37° C. under 5% CO2/95% air. The plate was spun down for 10 minutes at 500×g and 20 μL supernatant was harvested and transferred to a 384 well v-bottom plate using a liquid handler and stored at −20° C. until further analysis. 10 μL supernatant was used to measure the level of Eotaxin-3 (CCL26) using Human Eotaxin-3 MSD kit from Mesocsale (Cat #K251UEK-4). The assay was performed according to the manufacture instructions.
The data from the human whole blood eotaxin-3 assay is shown below for Examples 1u2, 1x1, 1af26, and 1af36 (where the effect in % is plotted against the test concentration in M on a log-scale).

Row | Structure (SMILES) | Emax [%]
1 | CNc1ccc(-c2ccnc3c2cc(CN2CC[C@@H](c4ccc(C(=O)N(C)C)cc4)C[C@@H]2C)n3C)nc1 (single isomer, unassigned) [Example 1o28] | < 20
2 | CNc1ccc(-c2ccnc3c2cc(CN2CC[C@H](c4ccc(C(=O)N(C)C)cc4)C[C@H]2C)n3C)nc1 (single isomer, unassigned) [Example 1o29] | < 20
3 | CNc1ccc(-c2ccnc3c2cc(CN2CC[C@@H](c4ccc(C(=O)N(C)C)cc4)[C@H](F)C2)n3C)nc1 (stereo in doubt) [Example 1o17, 4-((3S,4S)-3-fluoro-1-((1-methyl-4-(5-(methylamino)pyridin-2-yl)-1H-pyrrolo[2,3-b]pyridin-2-yl)methyl)piperidin-4-yl)-N,N-dimethylbenzamide] | < 20

same assay, conditions: Homo sapiens, Hec50, 48 h

Row | Structure (SMILES) | EC50 [nM]
4 | Cc1cc(C(=O)N(C)C)cnc1C1=CCN(Cc2cc3c(-c4ccc(N)nn4)ccnc3n2C)CC1 [Example 1ae22, 1′-((4-(6-Aminopyridazin-3-yl)-1-methyl-1H-pyrrolo[2,3-b]pyridin-2-yl)methyl)-N,N,3-trimethyl-1′,2′,3′,6′-tetrahydro-[2,4′-bipyridine]-5-carboxamide] | 392

target: human STAT6 (Homo sapiens (Human), UniProt P42226); assay: Surface plasmon resonance assay (Biacore 8K, binding to immobilized STAT6); settings: human STAT6 aa122-658, N-terminal His-tag, CM5 chip, 25° C.; geometric mean; read-out: STAT6 SPR Kd
Sequence (P42226 122-658): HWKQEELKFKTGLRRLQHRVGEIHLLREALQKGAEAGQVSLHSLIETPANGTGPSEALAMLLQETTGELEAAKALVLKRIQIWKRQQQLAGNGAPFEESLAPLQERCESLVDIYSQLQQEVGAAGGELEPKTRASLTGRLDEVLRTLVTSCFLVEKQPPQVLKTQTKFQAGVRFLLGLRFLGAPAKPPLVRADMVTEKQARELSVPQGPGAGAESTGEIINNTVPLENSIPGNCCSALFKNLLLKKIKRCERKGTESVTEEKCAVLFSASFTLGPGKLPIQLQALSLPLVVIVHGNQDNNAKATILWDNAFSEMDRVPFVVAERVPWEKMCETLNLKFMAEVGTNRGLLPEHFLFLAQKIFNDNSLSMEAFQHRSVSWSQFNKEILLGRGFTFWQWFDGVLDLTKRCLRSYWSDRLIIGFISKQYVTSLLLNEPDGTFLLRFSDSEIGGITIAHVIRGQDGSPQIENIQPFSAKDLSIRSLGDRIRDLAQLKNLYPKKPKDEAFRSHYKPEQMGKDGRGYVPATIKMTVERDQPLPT
Outline: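 Run at 25° C with His-tagged STAT6 aa122-658 (insect-cell expressed) amine-coupled to a CM5 chip, reference-subtracted, in PBS-P+ with 2% DMSO. Multi-cycle kinetics: 60 sec. contact, up to 300 sec. dissociation. Affinity fitted from late report-point binding isotherms, with Rmax both free and fixed to theoretical 1:1.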

Row | Structure (SMILES) | Kd [nM]
5 | CN(C)C(=O)c1ccc(C2CCN(Cc3cc4c(-c5ccc(N)c(C#N)c5)ccnc4n3C)CC2)cc1 [Example 1k80, 4-(1-((4-(4-Amino-3-cyanophenyl)-1-methyl-1H-pyrrolo[2,3-b]pyridin-2-yl)methyl)piperidin-4-yl)-N,N-dimethylbenzamide] | 52.1
6 | CN(C)C(=O)c1ccc(C2CCN(Cc3cc4c(-c5ccc6[nH]cc(C(=O)C(F)(F)F)c6c5)ccnc4n3C)CC2)cc1 [Example 1m145, N,N-dimethyl-4-(1-((1-methyl-4-(3-(2,2,2-trifluoroacetyl)-1H-indol-5-yl)-1H-pyrrolo[2,3-b]pyridin-2-yl)methyl)piperidin-4-yl)benzamide] | 253
7 | C[C@@H]1CN(c2ccc(C(=O)N(C)C)cc2)CCN1Cc1cc2c(-c3ccc(N)nc3)ccnc2n1C [Example 1n4, 4-[(3R)-4-[[4-(6-amino-3-pyridyl)-1-methyl-pyrrolo[2,3-b]pyridin-2-yl]methyl]-3-methyl-piperazin-1-yl]-N,N-dimethyl-benzamide] | 147
8 | C[C@H]1CN(c2ccc(C(=O)N(C)C)cc2)CCN1Cc1cc2c(-c3ccc(N)nc3)ccnc2n1C [Example 1n5, 4-[(3S)-4-[[4-(6-Amino-3-pyridyl)-1-methyl-pyrrolo[2,3-b]pyridin-2-yl]methyl]-3-methyl-piperazin-1-yl]-N,N-dimethyl-benzamide] | 68.6
9 | CNc1ccc(-c2ccnc3c2cc(CN2CCN(c4ccc(C(=O)N(C)C)cn4)CC2)n3C)cn1 [Example 1n7, N,N-Dimethyl-6-[4-[[1-methyl-4-[6-(methylamino)-3-pyridyl]pyrrolo[2,3-b]pyridin-2-yl]methyl]piperazin-1-yl]pyridine-3-carboxamide] | 1040
10 | CNc1cc(C)c(-c2ccnc3c2cc(CN2CCN(c4ccc(C(=O)N(C)C)cc4)CC2)n3C)cn1 [Example 1n8, N,N-Dimethyl-4-[4-[[1-methyl-4-[4-methyl-6-(methylamino)-3-pyridyl]pyrrolo[2,3-b]pyridin-2-yl]methyl]piperazin-1-yl]benzamide] | 2600
11 | CNc1ccc(-c2ccnc3c2cc(CN2CCN(c4ccc(C(=O)N(C)C)cn4)CC2)n3C)nc1 [Example 1n9, N,N-Dimethyl-6-[4-[[1-methyl-4-[5-(methylamino)-2-pyridyl]pyrrolo[2,3-b]pyridin-2-yl]methyl]piperazin-1-yl]pyridine-3-carboxamide] | 8920
12 | CNc1ccc(-c2ccnc3c2cc(CN2CCC(F)(c4ccc(C(=O)N(C)C)cc4)CC2)n3C)nc1 [Example 1o19, 4-[4-Fluoro-1-[[1-methyl-4-[5-(methylamino)-2-pyridyl]pyrrolo[2,3-b]pyridin-2-yl]methyl]-4-piperidyl]-N,N-dimethyl-benzamide] | 173
13 | CNc1ccc(-c2ccnc3c2cc([C@@H](C)N2CCC(c4ccc(C(=O)N(C)C)cc4)CC2)n3C)nc1 [Example 1o25, (R)—N,N-dimethyl-4-(1-(1-(1-methyl-4-(5-(methyl-amino)pyridin-2-yl)-1H-pyrrolo[2,3-b]pyridin-2-yl)ethyl)piperidin-4-yl)benzamide] | 1350
14 | CNc1ccc(-c2ccnc3c2cc(CN2CC[C@H](c4ccc(C(=O)N(C)C)cc4)C[C@@H]2C)n3C)nc1 [Example 1o27, N,N-dimethyl-4-((2S,4S)-2-methyl-1-((1-methyl-4-(5-(methylamino)-pyridin-2-yl)-1H-pyrrolo[2,3-b]pyridin-2-yl)methyl)piperidin-4-yl)benzamide] | 147
15 | CNc1ccc(-c2ccnc3c2cc(CN2CCC(c4ccc(C(=O)N(C)C)cn4)CC2)n3C)nn1 [Example 1p5, N,N-Dimethyl-6-[1-[[1-methyl-4-[6-(methylamino)pyridazin-3-yl]pyrrolo[2,3-b]pyridin-2-yl]methyl]-4-piperidyl]pyridine-3-carboxamide] | 148
16 | CC(=O)Nc1ccc(-c2ccnc3c2cc(CN2CC[C@H](c4ccc(C(=O)N(C)C)cc4)[C@H](F)C2)n3C)cc1 [Example 1r5, N,N-Dimethyl-4-[(3S,4R)-1-[[4-(4-acetamidophenyl)-1-methyl-pyrrolo[2,3-b]pyridin-2-yl]methyl]-3-fluoro-4-piperidyl]benzamide] | 110
17 | CNc1ccc(-c2ccnc3c2cc(CN2CCN(c4ccc(C(=O)N(C)C)cc4)CC2=O)n3C)cn1 [Example 1s5, N,N-Dimethyl-4-[4-[[1-methyl-4-[6-(methylamino)-3-pyridyl]pyrrolo[2,3-b]pyridin-2-yl]methyl]-3-oxo-piperazin-1-yl]benzamide] | 70.6
18 | CNc1ccc(-c2ccnc3c2cc(CN2CCC(n4ccc(C(=O)N(C)C)cc4=O)CC2)n3C)cn1 [Example 1s6, N,N-Dimethyl-1-[1-[[1-methyl-4-[6-(methylamino)-3-pyridyl]pyrrolo[2,3-b]pyridin-2-yl]methyl]-4-piperidyl]-2-oxo-pyridine-4-carboxamide] | 595
19 | CNc1ccc(-c2ccnc3c2cc(CN2CCC(c4ccc(C(=O)N(C)C)cc4C)CC2)n3C)cn1 [Example 1s9, N,N,3-Trimethyl-4-[1-[[1-methyl-4-[6-(methylamino)-3-pyridyl]pyrrolo[2,3-b]pyridin-2-yl]methyl]-4-piperidyl]benzamide] | 48.1
20 | CNc1ccc(-c2ccnc3c2cc(CN2CC=C(c4ccc(C(=O)N(C)C)cn4)CC2)n3C)cn1 [Example 1s11, N,N-Dimethyl-6-[1-[[1-methyl-4-[6-(methylamino)-3-pyridyl]pyrrolo[2,3-b]pyridin-2-yl]methyl]-3,6-dihydro-2H-pyridin-4-yl]pyridine-3-carboxamide] | 133
21 | CNc1ccc(-c2ccnc3c2cc(CN2CCC(c4ncc(C(=O)N(C)C)cc4C)CC2)n3C)cn1 [Example 1s15, N,N,5-Trimethyl-6-[1-[[1-methyl-4-[6-(methylamino)-3-pyridyl]pyrrolo[2,3-b]pyridin-2-yl]methyl]-4-piperidyl]pyridine-3-carboxamide] | 119
22 | CNc1ccc(-c2ccnc3c2cc(CN2CCC(F)(c4ccc(C(=O)N(C)C)cc4)CC2)n3C)cn1 [Example 1s26, 4-[4-Fluoro-1-[[1-methyl-4-[6-(methylamino)-3-pyridyl]pyrrolo[2,3-b]pyridin-2-yl]methyl]-4-piperidyl]-N,N-dimethyl-benzamide] | 61.6
23 | CCS(=O)(=O)n1c(CN2CCC(c3ccc(C(=O)N(C)C)cc3)CC2)cc2c(-c3ccc(NC)nc3)ccnc21 [Example 1x2, 4-[1-[[1-Ethylsulfonyl-4-[6-(methylamino)-3-pyridyl]pyrrolo[2,3-b]pyridin-2-yl]methyl]-4-piperidyl]-N,N-dimethyl-benzamide] | 54.1
24 | CNc1ccc(-c2ccnc3c2cc(CN2CCC(c4ccc(C(=O)N(C)C)cc4)CC2)n3CC(C)(C)C)cn1 [Example 1x3, 4-[1-[[1-(2,2-Dimethylpropyl)-4-[6-(methylamino)-3-pyridyl]pyrrolo[2,3-b]pyridin-2-yl]methyl]-4-piperidyl]-N,N-dimethyl-benzamide] | 5280
25 | CNc1ccc(-c2ccnc3c2cc(C(C)N2CCC(c4ccc(C(=O)N(C)C)cc4)CC2)n3C)cn1 (centres unmarked) [Example 1z13, N,N-dimethyl-4-(1-(1-(1-methyl-4-(6-(methylamino)pyridin-3-yl)-1H-pyrrolo[2,3-b]pyridin-2-yl)ethyl)piperidin-4-yl)benzamide] | 22.3
26 | CN(C)C(=O)c1ccc(C2CCN(Cc3cc4c(-c5ccc(N)nc5)ccnc4n3C)CC2)cc1 [Example 1z19, 4-(1-((4-(6-aminopyridin-3-yl)-1-methyl-1H-pyrrolo[2,3-b]pyridin-2-yl)methyl)piperidin-4-yl)-N,N-dimethylbenzamide] | 22.3
